Where “and” joins values, the source holds several entries; their conditions need not be identical. Equal values may be shown once. Calls of active or inactive are those of the source.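 How the source made its calls: active means compounds giving half or more protection of infected cells from virus-caused growth loss, again on retest; inactive means the rest.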
Tested on: CEM cells HIV-1 protection, formazan growth assay
Experiment: NCI AIDS Antiviral Assay
Conditions: for IC50: measured here: growth of uninfected CEM cells
Outline: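 Human CEM cells, uninfected and HIV-1-infected, received five drug concentrations, and growth was read by soluble formazan assay. Compounds giving at least 50% protection were retested; reproducible 100% protection defined confirmed active.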

SMILES	EC50 [µM]	IC50	outcome
CCN(CC)c1cc2oc(=O)cc(C)c2cc1NC(=O)c1cc([N+](=O)[O-])cc([N+](=O)[O-])c1	> 49	> 49 µM	
FC1(F)SC2CCCCCCCCCCC2C1(F)F (configuration not stated)	> 200	91.2 µM	
COc1cc2c(c(OC)c1O)C(=O)CC(c1ccc(O)cc1)O2 (configuration not stated)	> 200	21.9 µM	
N#CC1=C(O)NC(O)=C(C#N)C12C(=O)Nc1ccccc12	> 794	> 794 µM	
O=C(CC(=O)N1N=C(N(c2ccccc2)c2ccccc2)CC1c1ccccc1)Nc1ccccc1 (configuration not stated)			inactive
CC1(C)COC(c2cccc(C(=O)c3ccccc3)c2)=N1	> 200	57.5 µM	
Cc1cc2nc(N)n[n+]([O-])c2cc1C	> 200	> 200 µM	
CC(=O)Nc1cccc2cc(S(=O)(=O)O)ccc12	> 200	> 200 µM	
[N-]=[N+]=NCCOCn1ccc(=O)[nH]c1=O	> 200	> 200 µM	
O=C1C[C@H]2[C@H](c3ccc(Br)cc3)[C@H]3C(=O)c4ccccc4NC(=O)[C@@H]3[C@@]2(O)c2ccccc2N1	> 200	77.6 µM	
O=C(/C=C/c1ccccc1)c1ccc(Cl)cc1Cl	> 2.69	> 2.69 µM	
COc1cc2c(cc1OC)C(Cc1cc(Br)c(OC)c(OC)c1)=[N+](C)CC2	> 447	33.9 µM	
C=C1CN(S(=O)(=O)c2ccc(C)cc2)CCCN(CC2CCCCC2)CCCN(S(=O)(=O)c2ccc(C)cc2)C1	> 46.8	1.17 µM	
[N-]=[N+]=NS(=O)(=O)c1cccc([N+](=O)[O-])c1			inactive
C=CC1C(C[C@@H]2c3cc(O)c(O)cc3CCN2C(C)=O)C(C(=O)OC)=CO[C@H]1OC1OC(CO)C(O)C(O)C1O (some centres not stated)			inactive
Cc1ccc(C)c(NC(=O)C(=O)CC(=O)c2cccc3ccccc23)c1	> 105	> 105 µM	
CC1C[C@H](C)CC(C(O)CC2CC(=O)N(Cc3ccccc3)C(=O)C2)C1O (some centres not stated)	> 200	> 200 µM	
COc1ccccc1C1(c2ccccc2OC)OC(=O)c2ccccc21	> 200	30.9 µM	
COc1cc(CNc2cnc3ccc(N)cc3n2)cc(OC)c1OC	> 525	35.5 µM	
CCOC(=O)Nc1nc2c(s1)c([N+](=O)[O-])cn2C	> 69.2	27.5 µM	
COc1ccccc1/C=C/C(=O)/C=C/c1ccccc1O	> 79.4	1.15 µM	

SMILES	EC50 [µM]	IC50	outcome
COc1cccc(C2SCC(=O)N2c2ccc(-n3c(-c4ccccc4)nc4ccccc4c3=O)cc2)c1OC (configuration not stated)	> 200	> 200 µM	
c1ccc2c(c1)[nH]c1c2nc2sccn21	> 234	> 145 µM and 214 µM	
CN(C(=O)C12C3C4C1C1C4(C#N)C3C12C(=O)O)C(C)(C)C (configuration not stated)	> 158	> 158 µM	
NS(=O)(=O)c1ccc(CNC(=O)c2ccccc2SC(=O)OCCCCCl)cc1	4.68	129 µM	
CC(=O)N1c2ccccc2C2=NN=C(N(C)C)SC21 (configuration not stated)			inactive
COC(C(=O)C(O)C(C)O)C1Cc2cc3cc(OC4CC(OC(C)=O)C(OC5CC(O)C(OC)C(C)O5)C(C)O4)cc(O)c3c(O)c2C(=O)C1OC1CC(OC2CC(OC3CC(C)(O)C(OC(=O)C(C)C)C(C)O3)C(O)C(C)O2)C(O)C(C)O1 (configuration not stated)	> 2.09	0.0107 µM and 0.00389 µM	
COC(=O)CCCc1c(-c2[nH]c3ccccc3c2CCCC(=O)OC)[nH]c2ccccc12	> 200	> 200 µM	
C/C(=N\Nc1ccc([N+](=O)[O-])cc1[N+](=O)[O-])c1sc(-n2nc(-c3ccccc3)cc2-c2ccccc2)nc1C	> 126	42.7 µM	
C=CS(=O)(=O)c1c2cc(OC)ccc2nc2ccc(OC)cc12	> 20	2.88 µM	
CCOc1ccc(N=Cc2cc(OC)c(OC)c(OC)c2)cc1	> 60.3	> 60.3 µM	
C/C(=C/C(=O)O)CC/C=C(/C)C(=O)O	> 479	> 479 µM	
CC[N+]12CN3CN(CN(C3)C1)C2	> 851	437 µM	
COC(OC)c1cc2c(cc1C(=O)[C@@]13CCC[C@@H]1NC(=O)O3)OCO2			inactive
CC1=NN(C(=O)CC(=O)Nc2ccc(C)cc2)C(=O)C1N=Nc1ccc(S(=O)(=O)c2ccc(N=NC3C(=O)N(C(=O)CC(=O)Nc4ccc(C)cc4)N=C3C)cc2)cc1 (configuration not stated)	> 50.1	> 50.1 µM	
O=C(Nc1ccccc1)Nc1ccc([N+](=O)[O-])cn1	> 200	> 200 µM	
Cc1nc(C(N)=S)sc1C(=O)CC(=O)C(=O)Nc1c(C(C)C)cccc1C(C)C	> 302	30.9 µM	
COc1ccc(/C=C/c2nc(=S)[nH][nH]2)cc1	> 214	> 214 µM	
COc1cc2c3c(c1)[nH]c(=S)n3C(=O)CS2	> 28.8	> 28.8 µM	
O=c1c2c3c(sc2nc(CN2CCNCC2)n1-c1ccccc1)CCCC3	> 100	> 100 µM	
CCC(=O)n1c(=O)n(-c2ccc([N+](=O)[O-])cc2)c(=O)n1C(=O)CC	> 200	> 200 µM	
Clc1cccc(C2N3CCCCC3[C@@H]3c4[nH]c5ccccc5c4CCN23)c1 (some centres not stated)	> 13.8	> 13.8 µM	

SMILES	EC50 [µM]	IC50	outcome
COC(=O)/C=C/C1CC(CCCOc2ccccc2)OC(c2ccccc2)O1 (configuration not stated)	> 66.1	> 66.1 µM	
C[C@H]1NC(=O)C2CCCCN2C(=O)CN(C)C(=O)CNC(=O)C2CCCCN2C(=O)[C@@H](NC(=O)c2nc3ccccc3cc2O)[C@@H](C)NC(=O)C2CCCCN2C(=O)CN(C)C(=O)CNC(=O)[C@@H]2CCCCN2C(=O)C1NC(=O)c1nc2ccccc2cc1O (some centres not stated)	> 10.5	0.0427 µM	
CC(C)(C)OC(=O)NC(CS(=O)(=O)O)C(=O)O (configuration not stated)	> 200	> 200 µM	
CNC(=S)SSC(=S)NCCNC(=S)SSC(=S)NC			inactive
O1[SiH]2[SiH]3O[SiH]3[SiH]3O[SiH]3[SiH]12 (configuration not stated)			inactive
Nc1cc(Cl)c(S(=O)(=O)O)cc1Cl	> 200	> 200 µM	
COC(CNC(=O)C(C)NC(=O)/C=C/c1ccccc1)OC (configuration not stated)			inactive
CCCCCCCCCCCCCCCCCc1nnc(N)o1			inactive
COC(=O)/C=C/C=C/c1ccc2c(c1OC)C(=O)c1ccccc1C2=O			inactive
CCCCCCCC(=O)c1ccc(O)c(C(=O)Nc2ccc(C(F)(F)F)cc2)c1	> 33.1	5.01 µM	
c1ccc(SCc2ccc3c(c2)OCO3)cc1	> 77.6	> 77.6 µM	
NS(=O)(=O)c1ccc(C(=O)O)cc1	> 200	> 200 µM	
C=C/C(C)=C/[C@H](C)C(=O)C[C@H](O)CC1CC(=O)NC(=O)C1			inactive
COc1ccc(/C=N/N=C(\N)NO)c(OC)c1OC	> 200	> 200 µM	
O=C1OCCCCCCOC(=O)c2ccccc2SSc2ccccc21	> 200	> 200 µM	
O=C1c2ccccc2C(=O)c2c1ccc1conc21			inactive
O=C(Cn1cc(Br)c(=O)[nH]c1=O)c1ccc(-c2ccccc2)cc1	> 200	> 200 µM	
Cc1cn(C2CCN(c3ccccc3)O2)c(=O)[nH]c1=O (configuration not stated)	> 200	> 200 µM	
O=C(Nc1ccc(Cl)cc1Cl)C1C(=O)OC2(CCCCC2)OC1=O	> 200	13.8 µM	
O=C1CSC(c2c[nH]c3ccccc23)N1c1ccc(Cl)cc1Cl (configuration not stated)	> 257	56.2 µM	

— PubChem BioAssay AID179 (DTP/NCI, 2004)
